The source of these data is patent US6864253B2, “Benzo[4,5]thieno[2,3-c]pyridine and Benzo[4,5]furo[2,3-c]pyridine Derivatives Useful as Inhibitors of Phosphodiesterase” (Orth-McNeil Pharmaceutical, Inc., priority 2000, dated 2005).

For one experiment, the target named is PDEV (Oryctolagus cuniculus, UniProt G1SX67). The experiment is described as follows: Cyclic nucleotide phosphodiesterase (PDE) assay, inhibition of PDEV isolated from rabbit tissue. In kind it is biochemical. To be noted: 10 μM test compound; rabbit PDEV. The protocol:
Briefly, rabbit or human tissues were homogenized in an ice-cold buffer solution containing 20 mM HEPES (pH 7.2), 0.25M sucrose, 1 mM EDTA, and 1 mM phenylmethylsulphonyl fluoride (PMSF). The homogenates were centrifuged at 100,000 g for 60 minutes at 4° C. The supernatant was filtered through […] filter and loaded on a Pharmacia Mono Q anion exchange column (1 ml bed volume) that was equilibrated with 20 mM HEPES, 1 mM EDTA and 0.5 mM PMSF. […] The fractions comprising various PDE activities were pooled separately and used in later studies.
The assays were adapted to a 96-well format. The enzyme was assayed in 5 mM MgCl2, 15 mM Tris HCl (pH 7.4), 0.5 mg/ml bovine serum albumin, 1 μM cGMP or cAMP, 0.1 μCi [^3H]-cGMP or [^3H]-cAMP, and 2-10 μl of column elution. The total volume of the assay was 100 μl. The reaction mixture was incubated at 30° C. for 30 minutes. The reaction was stopped by boiling for 1 minute and then cooled down on ice. The resulting [^3H] 5′-mononucleotides were further converted to uncharged [^3H]-nucleosides by adding 25 μl 1 mg/ml snake venom (Ophiophagus hannah) and incubating at 30° C. for 10 minute. The reaction was stopped by the addition of 1 ml Bio-Rad AG1-X2 resin slurry (1:3). All the charged nucleotides were bound by the resin and only the uncharged [^3H]-nucleosides remained in the supernatant after centrifuging. An aliquot of 200 μl was taken and counted by liquid scintillation. PDE activity was expressed as pmol cyclic nucleotide hydrolyzed/min/ml of enzyme preparation.
Inhibitor studies were carried out in assay buffer with a final concentration of 10% DMSO.
Regarding `O=C(c1ccc(-c2cccc(C(F)(F)F)c2)o1)N1CCc2c(n(Cc3ccccn3)c3ccccc23)C1c1ccc2c(c1)OCO2` (centres unmarked) [Cmpd 26], the “% Inh @ 10 μM (rabbit)” value was 88%.
Still for that read-out and setting: in the case of `COC(=O)CCn1c2c(c3ccccc31)CCN(C(=O)c1ccc(-c3cccc(C(F)(F)F)c3)o1)C2c1ccc2c(c1)OCO2` (centres unmarked) [Cmpd 23] it was 30%; in that of `O=C(c1ccc(-c2cccc(C(F)(F)F)c2)o1)N1CCc2c([nH]c3ccccc23)C1c1ccncc1` (centres unmarked) [Cmpd 87], 34%; in that of `COC(=O)c1ccc(C2c3[nH]c4ccccc4c3CCN2C(=O)c2cc(C(C)(C)C)nn2Cc2ccccc2)cc1` (centres unmarked) [Cmpd 140], 8%.
Take `O=C(c1cnn(-c2ccccc2)c1C(F)(F)F)N1CCc2c([nH]c3ccccc23)C1c1ccc([N+](=O)[O-])cc1` (centres unmarked) [Cmpd 131]: the “% Inh @ 10 μM (rabbit)” value came out at 12%.
Regarding `COc1ccc(-c2cnc(N3CCc4c([nH]c5ccccc45)C3c3ccc4c(c3)OCO4)nc2)cc1` (centres unmarked) [Cmpd 9], the “% Inh @ 10 μM (rabbit)” value was found to be 80%.
Same read-out and setting: in the case of `O=C(O)C1Cc2c([nH]c3ccccc23)C(c2ccc3c(c2)OCO3)N1C(=O)c1ccc(-c2cccc([N+](=O)[O-])c2)o1` (centres unmarked) [Cmpd 67] it was 50%.
The same measure, in the same setting: in the case of `Cc1cc(C(=O)N2CCc3c([nH]c4ccccc34)C2c2ccc(OCCCN(C)C)cc2)nn1-c1ccccc1` (racemic) [Cmpd 107] it was 15%; in that of `CN(C)c1ccc(C2c3[nH]c4ccccc4c3CCN2C(=O)c2ccc(-c3cccc([N+](=O)[O-])c3)o2)cc1` (centres unmarked) [Cmpd 83], 27%.
In the case of `c1ccc2c3c([nH]c2c1)C(c1ccc2c(c1)CCO2)N(c1ncc(-c2ccc(OCCN4CCOCC4)cc2)cn1)CC3` (centres unmarked) [Cmpd 180], the “% INH @ 10 μM (rabbit)” value turned out to be 40%.
Take `CS(=O)(=O)c1ccc(-c2cnc(N3CCc4c([nH]c5ccccc45)C3c3ccc4c(c3)OCO4)nc2)c([N+](=O)[O-])c1` (centres unmarked) [Cmpd 8]: the “% Inh @ 10 μM (rabbit)” value worked out at 89%.
For the compound `CN(C)c1ccc(C2c3[nH]c4ccccc4c3CCN2C(=O)c2ccc(-c3cccc(C(F)(F)F)c3)o2)cc1` (centres unmarked) [Cmpd 82], the “% Inh @ 10 μM (rabbit)” value was determined as 13%.
As to `O=C(c1ccc(-c2ccc(NCCCCO)cc2)o1)N1CCc2c([nH]c3ccccc23)C1c1ccc2c(c1)OCO2` (centres unmarked) [Cmpd 60], the “% Inh @ 10 μM (rabbit)” value was 89%.
Still for that read-out and setting: for `CN(C)CCOC(=O)C1Cc2c([nH]c3ccccc23)C(c2ccc3c(c2)OCO3)N1C(=O)c1ccc(-c2cccc([N+](=O)[O-])c2)o1` (centres unmarked) [Cmpd 68] the value was 35%; for `O=C(c1ccc(-c2cccc(C(F)(F)F)c2)o1)N1CCc2c([nH]c3ccccc23)C1c1cccnc1` (centres unmarked) [Cmpd 78], 35%.
Take `O=C(c1cc(-c2ccccc2)c(C(F)(F)F)s1)N1CCc2c([nH]c3ccccc23)C1c1ccc2c(c1)OCO2` (centres unmarked) [Cmpd 90]: the “% Inh @ 10 μM (rabbit)” value is recorded as 69%.
As to `O=C(c1ccc(-c2cccc([N+](=O)[O-])c2)o1)N1CCc2c([nH]c3ccccc23)C1c1ccc2c(c1)OC(F)(F)O2` (centres unmarked) [Cmpd 21], the “% Inh @ 10 μM (rabbit)” value is on record as 32%.
Turning to `O=C(c1ccc(-c2cccc([N+](=O)[O-])c2)o1)N1CCc2c([nH]c3ccccc23)C1c1ccc2c(c1)OCO2` (centres unmarked) [Cmpd 54], the “% Inh @ 10 μM (rabbit)” value is 81%.

Still in this experiment, the particulars now being: 10 μM test compound; rabbit PDEV; 10 µM.
As for `COc1ccc(-c2cnc(N3CC(O)c4c([nH]c5ccccc45)C3c3ccc4c(c3)OCO4)nc2)cc1` (centres unmarked) [Cmpd 164], the “% INH @ 10 μM (rabbit)” value was found to be 82%.
Consider `O=C(c1ccc(-c2ccc(Cl)cc2[N+](=O)[O-])o1)N1CCc2c([nH]c3ccccc23)C1c1ccc2c(c1)OCO2` (centres unmarked) [Cmpd 66], for which the “% Inh @ 10 μM (rabbit)” value is on record as 23%.

The same experiment, now with this note: 10 μM test compound; rabbit PDEV; read-out: % INH @ 10 μM (rabbit).
With `CN(C)CCn1c2c(c3ccccc31)CCN(C(=O)c1cc3ccccc3o1)C2c1ccc2c(c1)OCO2` (centres unmarked) [Cmpd 147], the inhibition at 10 µM worked out at 52%.
For the compound `CS(=O)(=O)c1ccc(-c2cnc(N3CCc4c(n(CCN5CCCC5)c5ccccc45)C3c3ccc4c(c3)OCO4)nc2)c([N+](=O)[O-])c1` (centres unmarked) [Cmpd 154], the inhibition at 10 µM amounted to 97%.
As for `CN(C)CCn1c2c(c3ccccc31)CCN(C(=O)c1ccc(-c3ccccc3)o1)C2c1ccc2c(c1)OCO2` (centres unmarked) [Cmpd 152], the inhibition at 10 µM was 80%.
